Experiments:
[1] = target: human prostanoid EP2 receptor (Homo sapiens (Human), UniProt P43116); experiment: Human prostanoid EP2 receptor cellular functional assay (cAMP, HTRF); type: cell-based; details: percent of control specific agonist response (10 μM PGE2)
Method: Test 1.2: Human Prostanoid EP2 Receptor Cellular Functional Assay
Human CHO cells expressing the recombinant human prostanoid EP2 receptor were suspended in assay medium (HBSS buffer (Invitrogen) containing 20 mM HEPES (pH7.4) and 500 μM isobutyl-methylxanthine IBMX) and plated out to yield approximately 1×10^4 cells/well in a 96-well. Following this, cells were incubated with agonists for 30 min in the presence of the test compounds. For stimulated control measurements, separate assay wells contain 10 μM PGE2 (control specific agonist). All incubations were carried out at 37° C. in a 5% CO2 atmosphere. Following incubation, the amount of cAMP in each well was determined by HTRF method. The cells are lysed and the fluorescence acceptor (D2-labeled cAMP) and fluorescence donor (anti-cAMP antibody labeled with europium cryptate) are added. After 60 min at room temperature, the fluorescence transfer is measured at λex=337 nm and λem=620 and 665 nm using a microplate reader (Rubystar, BMG).
The cAMP concentration is determined by dividing the signal measured at 665 nm by that measured at 620 nm (ratio).
The standard reference agonist PGE2 was tested at several concentrations to generate a concentration-response curve to determined EC50.
Analysis and Expression of Results […]

[2] = test system: laser-induced glaucomatous monkeys; experiment: Laser-induced hypertensive cynomolgus monkey, intraocular pressure; type: in vivo; details: 0.01% topically to glaucomatous eye once daily for 5 days
Method: Laser-Induced Hypertensive Cynomolgus Monkey
Ten adult female cynomolgus monkeys, each weighing 3-5 kg, in which glaucoma had been induced unilaterally by diode laser photocoagulation of the mid-trabecular meshwork, were used in this study.
Intraocular pressure (IOP) was measured at 0 hr (before drug administration) and then hourly until 6 hrs after drug administration on one baseline day, one vehicle-treatment day, and treatment days 1, 3, and 5 with 0.01% of compound II(d).
Compound II(d) was tested in two groups of 4 monkeys for a total of 8 monkeys. Following one baseline day (untreated) and one vehicle-treatment day (50 μl (25 μl×2), drop of vehicle to the glaucomatous eye at 9:30 (a 50 μl drop (25 μl×2) of compound (II(d)) were topically applied to the glaucomatous eye only once daily at 9:30 am for 5 consecutive days.
Slit-lamp examination for the detection of aqueous humor flare and cells was performed in a dark room before drug administration and at 1, 3 and 5 hrs after dosing on baseline day and at the same times on treatment days 1, 3 and 5.
Two-tailed paired and unpaired t test and the ANOVA test were used for statistical analysis.

Chain of human prostanoid EP2 receptor (P43116 whole entry): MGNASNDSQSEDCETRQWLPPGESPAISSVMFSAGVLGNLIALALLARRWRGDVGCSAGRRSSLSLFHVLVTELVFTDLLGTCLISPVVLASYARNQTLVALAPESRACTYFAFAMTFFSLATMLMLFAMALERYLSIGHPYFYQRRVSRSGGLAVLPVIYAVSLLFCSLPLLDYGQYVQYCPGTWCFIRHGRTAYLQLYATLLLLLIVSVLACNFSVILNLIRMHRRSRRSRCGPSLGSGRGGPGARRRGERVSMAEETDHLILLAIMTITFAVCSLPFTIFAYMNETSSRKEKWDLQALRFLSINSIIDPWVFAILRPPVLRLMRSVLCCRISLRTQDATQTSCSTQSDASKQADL

In vitro functional assay % response [1]	Compound	overall IOP reduction [2]
124%	C[C@@H](Nc1c(F)ccc(OCC(=O)O)c1F)c1cc(-c2cccc(F)c2)ccc1F (single isomer, unassigned) [I(as) (+isomer)]	–
–	CC(C)OC(=O)COc1ccc(F)c(NCc2cc(-c3cccc(F)c3)ccc2F)c1F [II(d), Isopropyl 2-[2,4-difluoro-3-[[2-fluoro-5-(3-fluorophenyl)phenyl]methylamino]phenoxy]acetate]	22%

Source: patent publication US9624159B2, “Aniline derivatives, their preparation and their therapeutic application” (SANOFI, priority 2011, dated 2017)
